# Test system: MV-4-11 cells
# Test: Gene expression microarray analysis (Affymetrix PrimeView) and GSEA
# Format: cell-based, human
# Set-up: RFU PODN (11730768_x_at) / Fold change /veh PODN (11730768_x_at) / RFU LINC00158 (11744669_a_at) / Fold change /veh LINC00158 (11744669_a_at) / RFU DUSP10 (11751237_a_at) / Fold change /veh DUSP10 (11751237_a_at) / RFU ID3 (11757404_x_at) / Fold change /veh ID3 (11757404_x_at) / RFU PLEKHG5 (11737974_s_at) / Fold change /veh PLEKHG5 (11737974_s_at) / RFU LRRC4B (11730491_at) / Fold change /veh LRRC4B (11730491_at) / RFU GIMAP4 (11747438_a_at) / Fold change /veh GIMAP4 (11747438_a_at) / RFU KRT8 (11758183_x_at) / Fold change /veh KRT8 (11758183_x_at) / RFU CNN1 (11734310_a_at) / Fold change /veh CNN1 (11734310_a_at) / RFU VPS37D (11726825_at) / Fold change /veh VPS37D (11726825_at) / RFU C10orf10 (11716522_x_at) / Fold change /veh C10orf10 (11716522_x_at) / RFU KIR2DL2 /// KIR2DL4 /// KIR2DL5A /// KIR2DL5B /// KIR2DS1 /// KIR2DS2 /// KIR2DS3 /// KIR2DS4 /// KIR3DL3 /// KIR3DL3 /// KIR3DS1 (11738374_at) / Fold change /veh KIR2DL2 /// KIR2DL4 /// KIR2DL5A /// KIR2DL5B /// KIR2DS1 /// KIR2DS2 /// KIR2DS3 /// KIR2DS4 /// KIR3DL3 /// KIR3DL3 /// KIR3DS1 (11738374_at) / RFU C1QL1 (11718748_at) / Fold change /veh C1QL1 (11718748_at) / RFU TMPRSS4 (11747572_a_at) / Fold change /veh TMPRSS4 (11747572_a_at) / RFU HAMP (11756126_x_at) / Fold change /veh HAMP (11756126_x_at) / RFU RNFT2 (11725882_a_at) / Fold change /veh RNFT2 (11725882_a_at) / RFU NR4A2 (11747474_a_at) / Fold change /veh NR4A2 (11747474_a_at) / RFU ABCC12 (11746883_a_at) / Fold change /veh ABCC12 (11746883_a_at) / RFU TMEM136 (11760407_x_at) / Fold change /veh TMEM136 (11760407_x_at) / RFU CLDN22 /// WWC2 (11732394_at) / Fold change /veh CLDN22 /// WWC2 (11732394_at) / RFU HLA-DPB1 (11760878_x_at) / Fold change /veh HLA-DPB1 (11760878_x_at) / RFU SPINT1 (11716480_a_at) / Fold change /veh SPINT1 (11716480_a_at) / RFU GAP43 (11754022_s_at) / Fold change /veh GAP43 (11754022_s_at) / RFU A4GNT (11735810_at) / Fold change /veh A4GNT (11735810_at) / RFU PRB3 (11715151_x_at) / Fold change /veh PRB3 (11715151_x_at) / RFU TUBB4B (11761932_at) / Fold change /veh TUBB4B (11761932_at) / RFU CAPN14 (11732068_a_at) / Fold change /veh CAPN14 (11732068_a_at) / RFU TMCC2 (11721928_a_at) / Fold change /veh TMCC2 (11721928_a_at) / RFU IRGQ (11745062_a_at) / Fold change /veh IRGQ (11745062_a_at) / RFU FAM174B (11720279_a_at) / Fold change /veh FAM174B (11720279_a_at) / RFU TMPRSS4 (11748680_a_at) / Fold change /veh TMPRSS4 (11748680_a_at) / RFU FAM212B (11763350_a_at) / Fold change /veh FAM212B (11763350_a_at) / RFU PLEKHG5 (11743358_a_at) / Fold change /veh PLEKHG5 (11743358_a_at) / RFU ZSCAN30 (11745921_a_at) / Fold change /veh ZSCAN30 (11745921_a_at) / RFU CMKLR1 (11741424_a_at) / Fold change /veh CMKLR1 (11741424_a_at) / RFU LOC101060620 /// MAPK8IP1 (11723275_at) / Fold change /veh LOC101060620 /// MAPK8IP1 (11723275_at) / RFU SPTSSB (11747773_x_at) / Fold change /veh SPTSSB (11747773_x_at) / RFU PRSS12 (11739890_at) / Fold change /veh PRSS12 (11739890_at) / RFU BIN1 (11741810_x_at) / Fold change /veh BIN1 (11741810_x_at) / RFU WNT11 (11732464_a_at) / Fold change /veh WNT11 (11732464_a_at) / RFU C10orf10 (11716521_a_at) / Fold change /veh C10orf10 (11716521_a_at) / RFU C5orf56 (11738089_at) / Fold change /veh C5orf56 (11738089_at) / RFU CYB561 (11721691_x_at) / Fold change /veh CYB561 (11721691_x_at) / RFU ANKRD19P (11752326_a_at) / Fold change /veh ANKRD19P (11752326_a_at) / RFU OR2T12 /// OR2T33 /// OR2T8 (11738714_s_at) / Fold change /veh OR2T12 /// OR2T33 /// OR2T8 (11738714_s_at) / RFU VCAN (11748164_a_at) / Fold change /veh VCAN (11748164_a_at) / RFU JSRP1 (11732532_at) / Fold change /veh JSRP1 (11732532_at) / RFU KRTAP10-11 (11738290_x_at) / Fold change /veh KRTAP10-11 (11738290_x_at) / RFU MYO3A (11730013_a_at) / Fold change /veh MYO3A (11730013_a_at) / RFU EBF3 (11725865_a_at) / Fold change /veh EBF3 (11725865_a_at) / RFU CAMK2N1 (11719241_x_at) / Fold change /veh CAMK2N1 (11719241_x_at) / RFU C5orf56 (11738088_a_at) / Fold change /veh C5orf56 (11738088_a_at) / RFU OLFML3 (11715873_a_at) / Fold change /veh OLFML3 (11715873_a_at) / RFU LOC100653217 /// NTM (11731650_a_at) / Fold change /veh LOC100653217 /// NTM (11731650_a_at) / RFU MAPK11 (11762145_a_at) / Fold change /veh MAPK11 (11762145_a_at) / RFU FIZ1 (11724087_x_at) / Fold change /veh FIZ1 (11724087_x_at) / RFU OASL (11726364_x_at) / Fold change /veh OASL (11726364_x_at) / RFU SOX15 (11748057_x_at) / Fold change /veh SOX15 (11748057_x_at) / RFU CD79A (11719716_a_at) / Fold change /veh CD79A (11719716_a_at) / RFU HIST1H1D (11736915_at) / Fold change /veh HIST1H1D (11736915_at) / RFU CASKIN2 (11723855_a_at) / Fold change /veh CASKIN2 (11723855_a_at) / RFU LOC730098 (11760151_x_at) / Fold change /veh LOC730098 (11760151_x_at) / RFU OR4N2 (11742367_at) / Fold change /veh OR4N2 (11742367_at) / RFU PRRT2 (11749266_a_at) / Fold change /veh PRRT2 (11749266_a_at) / RFU SNX32 (11753110_a_at) / Fold change /veh SNX32 (11753110_a_at) / RFU CDHR5 (11726645_a_at) / Fold change /veh CDHR5 (11726645_a_at) / RFU RCAN1 (11760418_a_at) / Fold change /veh RCAN1 (11760418_a_at) / RFU FAM167A (11723789_a_at) / Fold change /veh FAM167A (11723789_a_at) / RFU FAM26E (11764081_at) / Fold change /veh FAM26E (11764081_at) / RFU ISYNA1 (11749810_s_at) / Fold change /veh ISYNA1 (11749810_s_at) / RFU ACY1 (11761880_at) / Fold change /veh ACY1 (11761880_at) / RFU 11764098_at / Fold change /veh 11764098_at / RFU SAMD14 (11745864_x_at) / Fold change /veh SAMD14 (11745864_x_at) / RFU NPB (11741838_a_at) / Fold change /veh NPB (11741838_a_at) / RFU TMPRSS6 (11731388_a_at) / Fold change /veh TMPRSS6 (11731388_a_at) / RFU KRTAP10-2 (11738614_at) / Fold change /veh KRTAP10-2 (11738614_at) / RFU ARHGAP8 /// PRR5-ARHGAP8 (11727945_x_at) / Fold change /veh ARHGAP8 /// PRR5-ARHGAP8 (11727945_x_at) / RFU KRTAP5-7 /// NADSYN1 (11734609_at) / Fold change /veh KRTAP5-7 /// NADSYN1 (11734609_at) / RFU RASL12 (11751679_a_at) / Fold change /veh RASL12 (11751679_a_at) / RFU CDKN2B (11736163_a_at) / Fold change /veh CDKN2B (11736163_a_at) / RFU PRF1 (11729649_at) / Fold change /veh PRF1 (11729649_at) / RFU, ZNF638 /// ZNF638-IT1 / Fold change vs veh, ZNF638 /// ZNF638-IT1 / RFU, PANK3 / Fold change vs veh, PANK3 / RFU, SH3YL1 / Fold change vs veh, SH3YL1 / RFU, ZEB2 / Fold change vs veh, ZEB2 / RFU, NRIP1 / Fold change vs veh, NRIP1 / RFU, PTTG1IP / Fold change vs veh, PTTG1IP / RFU, CAPN2 / Fold change vs veh, CAPN2 / RFU, MED14 / Fold change vs veh, MED14 / RFU, SNORA58 / Fold change vs veh, SNORA58 / RFU, C1orf63 / Fold change vs veh, C1orf63 / RFU, LRRFIP1 / Fold change vs veh, LRRFIP1 / RFU, NDUFAF7 / Fold change vs veh, NDUFAF7 / RFU, SLC12A2 / Fold change vs veh, SLC12A2 / RFU, IBTK / Fold change vs veh, IBTK / RFU, ESF1 / Fold change vs veh, ESF1 / Fold change vs veh, TMEM50B / RFU, TAOK1 / Fold change vs veh, TAOK1 / RFU, ACBD3 / Fold change vs veh, ACBD3 / RFU, TMA16 / Fold change vs veh, TMA16 / RFU, RWDD3 / Fold change vs veh, RWDD3 / RFU, BCAT1 / Fold change vs veh, BCAT1 / RFU, EDEM3 / Fold change vs veh, EDEM3 / RFU, TMEM33 / Fold change vs veh, TMEM33 / RFU, WDR75 / Fold change vs veh, WDR75 / RFU, AHCTF1 / Fold change vs veh, AHCTF1 / RFU, TFRC / Fold change vs veh, TFRC / RFU, ZDHHC17 / Fold change vs veh, ZDHHC17 / RFU, NOM1 / Fold change vs veh, NOM1 / RFU, ARL8B / Fold change vs veh, ARL8B / RFU, ZBTB11 / Fold change vs veh, ZBTB11 / RFU, TAMM41 / Fold change vs veh, TAMM41 / RFU, KIAA1704 /// LOC100996395 / Fold change vs veh, KIAA1704 /// LOC100996395 / RFU, ING1 / Fold change vs veh, ING1 / RFU, TRMT61B / Fold change vs veh, TRMT61B / RFU, FUBP3 / Fold change vs veh, FUBP3 / RFU, TP53 / Fold change vs veh, TP53 / RFU, TNKS2 / Fold change vs veh, TNKS2 / RFU, ZFP14 / Fold change vs veh, ZFP14 / RFU, ACTR2 / Fold change vs veh, ACTR2 / RFU, PPP3R1 / Fold change vs veh, PPP3R1 / RFU, PIK3R1 / Fold change vs veh, PIK3R1 / RFU, HNRNPA1 / Fold change vs veh, HNRNPA1 / RFU, RNF170 / Fold change vs veh, RNF170 / RFU, ZNF28 / Fold change vs veh, ZNF28 / RFU, RNGTT / Fold change vs veh, RNGTT / RFU, OGT / Fold change vs veh, OGT / RFU, BRD1 / Fold change vs veh, BRD1 / RFU, MARS / Fold change vs veh, MARS / RFU, ZNF655 / Fold change vs veh, ZNF655 / RFU, FAHD1 / Fold change vs veh, FAHD1 / RFU, BDP1 / Fold change vs veh, BDP1 / RFU, LRRCC1 / Fold change vs veh, LRRCC1 / RFU, ARID1A / Fold change vs veh, ARID1A / RFU, ZNF146 / Fold change vs veh, ZNF146 / RFU, ZNF330 / Fold change vs veh, ZNF330 / RFU, GPN3 / Fold change vs veh, GPN3 / RFU, C9orf123 / Fold change vs veh, C9orf123 / RFU, N4BP2L2 / Fold change vs veh, N4BP2L2 / RFU, ARFIP1 / Fold change vs veh, ARFIP1 / RFU, FAM179B / Fold change vs veh, FAM179B / RFU, BCL10 / Fold change vs veh, BCL10 / RFU, UHRF1BP1L / Fold change vs veh, UHRF1BP1L / RFU, BET1 / Fold change vs veh, BET1 / RFU, CNOT2 / Fold change vs veh, CNOT2 / RFU, ZNF268 / Fold change vs veh, ZNF268 / Fold change vs veh, ZNF507 / RFU, DGCR2 / Fold change vs veh, DGCR2 / RFU, WDSUB1 / Fold change vs veh, WDSUB1 / Fold change vs veh, HSP90B1 /// MIR3652 / RFU, ADSS / Fold change vs veh, ADSS / RFU, GK / Fold change vs veh, GK / RFU, ZNF148 / Fold change vs veh, ZNF148 / RFU, TAF9 / Fold change vs veh, TAF9 / RFU, SLC1A5 / Fold change vs veh, SLC1A5 / RFU, SLMO2 / Fold change vs veh, SLMO2 / RFU, ABCC4 / Fold change vs veh, ABCC4 / RFU, LOC101060439 /// RAP1B / Fold change vs veh, LOC101060439 /// RAP1B / RFU, RFX7 / Fold change vs veh, RFX7 / RFU, GTPBP10 / Fold change vs veh, GTPBP10 / RFU, CNEP1R1 / Fold change vs veh, CNEP1R1 / RFU, BIVM-ERCC5 /// ERCC5 / Fold change vs veh, BIVM-ERCC5 /// ERCC5 / RFU, ILF3 / Fold change vs veh, ILF3 / RFU 11762660_at / Fold change /veh 11762660_at / RFU VCAN (11757783_s_at) / Fold change /veh VCAN (11757783_s_at) / RFU DDX43 (11728927_at) / Fold change /veh DDX43 (11728927_at) / RFU KRT8 (11758188_x_at) / Fold change /veh KRT8 (11758188_x_at) / RFU NKD1 (11759106_at) / Fold change /veh NKD1 (11759106_at) / RFU SRD5A1 (11742802_a_at) / Fold change /veh SRD5A1 (11742802_a_at) / RFU TPSAB1 /// TPSB2 (11721975_s_at) / Fold change /veh TPSAB1 /// TPSB2 (11721975_s_at) / RFU GSTM3 (11746129_a_at) / Fold change /veh GSTM3 (11746129_a_at) / RFU IL23R (11737362_x_at) / Fold change /veh IL23R (11737362_x_at) / RFU TMEM51 (11727254_a_at) / Fold change /veh TMEM51 (11727254_a_at) / RFU PIWIL2 (11732686_x_at) / Fold change /veh PIWIL2 (11732686_x_at) / RFU ORM1 (11744905_x_at) / Fold change /veh ORM1 (11744905_x_at) / RFU CCDC152 (11743942_at) / Fold change /veh CCDC152 (11743942_at) / RFU ECM1 (11717891_a_at) / Fold change /veh ECM1 (11717891_a_at) / RFU IL23R (11748794_a_at) / Fold change /veh IL23R (11748794_a_at) / RFU TNFAIP8L3 (11732012_x_at) / Fold change /veh TNFAIP8L3 (11732012_x_at) / RFU MBOAT4 (11741988_at) / Fold change /veh MBOAT4 (11741988_at) / RFU 11764193_at / Fold change /veh 11764193_at / RFU TMEM53 (11763286_at) / Fold change /veh TMEM53 (11763286_at) / RFU MAGEB2 (11727129_at) / Fold change /veh MAGEB2 (11727129_at) / RFU TMEM200A (11744735_a_at) / Fold change /veh TMEM200A (11744735_a_at) / RFU CCDC152 (11751479_a_at) / Fold change /veh CCDC152 (11751479_a_at) / RFU FAM211A (11726209_a_at) / Fold change /veh FAM211A (11726209_a_at) / RFU RGS16 (11746705_a_at) / Fold change /veh RGS16 (11746705_a_at) / RFU VCAN (11755009_s_at) / Fold change /veh VCAN (11755009_s_at) / RFU RHOB (11743442_s_at) / Fold change /veh RHOB (11743442_s_at) / RFU RGS16 (11720943_a_at) / Fold change /veh RGS16 (11720943_a_at) / RFU RGS16 (11720944_at) / Fold change /veh RGS16 (11720944_at) / RFU, VPS4B / Fold change vs veh, VPS4B / RFU, CREB1 / Fold change vs veh, CREB1 / RFU, DNAJC13 / Fold change vs veh, DNAJC13 / RFU, GNAQ / Fold change vs veh, GNAQ / RFU, CDK5R1 / Fold change vs veh, CDK5R1 / RFU, ZRANB3 / Fold change vs veh, ZRANB3 / RFU, CUL4A / Fold change vs veh, CUL4A / RFU, CCNY / Fold change vs veh, CCNY / RFU, UFL1 / Fold change vs veh, UFL1 / RFU, COG3 / Fold change vs veh, COG3 / RFU, DIAPH2 / Fold change vs veh, DIAPH2 / RFU, SKA2 / Fold change vs veh, SKA2 / RFU, AFF3 / Fold change vs veh, AFF3 / RFU, LMF1 / Fold change vs veh, LMF1 / RFU, IPO11 / Fold change vs veh, IPO11 / RFU, DFFB / Fold change vs veh, DFFB / RFU, FOXP1 / Fold change vs veh, FOXP1 / RFU, CARD8 / Fold change vs veh, CARD8 / RFU, STRN3 / Fold change vs veh, STRN3 / RFU, ADK / Fold change vs veh, ADK / RFU, RASSF2 / Fold change vs veh, RASSF2 / RFU, WIPF1 / Fold change vs veh, WIPF1 / RFU, LARP1B / Fold change vs veh, LARP1B / RFU, RASA1 / Fold change vs veh, RASA1 / RFU, RB1 / Fold change vs veh, RB1 / RFU, PPFIA1 / Fold change vs veh, PPFIA1 / RFU, MAT2A / Fold change vs veh, MAT2A / RFU, CCT5 / Fold change vs veh, CCT5 / RFU, WDR92 / Fold change vs veh, WDR92 / RFU, CUX1 / Fold change vs veh, CUX1 / RFU, TTC7A / Fold change vs veh, TTC7A / RFU, TMEM135 / Fold change vs veh, TMEM135 / RFU, DEPTOR / Fold change vs veh, DEPTOR / RFU, CPM / Fold change vs veh, CPM / RFU, DNAJB6 / Fold change vs veh, DNAJB6 / RFU, CACNA2D3 / Fold change vs veh, CACNA2D3 / RFU, DTX4 / Fold change vs veh, DTX4 / RFU, TFCP2 / Fold change vs veh, TFCP2 / RFU, GMCL1 /// GMCL1P1 / Fold change vs veh, GMCL1 /// GMCL1P1 / RFU, AEBP2 / Fold change vs veh, AEBP2 / RFU, SNHG1 /// SNORD22 /// SNORD25 /// SNORD26 /// SNORD27 /// SNORD28 /// SNORD29 /// SNORD31 / Fold change vs veh, SNHG1 /// SNORD22 /// SNORD25 /// SNORD26 /// SNORD27 /// SNORD28 /// SNORD29 /// SNORD31 / Fold change (Aza/veh), C12orf56 (ProbeSet 11735607_a_at) / Fold change (ACY-1035/veh), C12orf56 (ProbeSet 11735607_a_at) / Fold change (Aza/veh), FGFR1OP (ProbeSet 11751329_s_at) / Fold change (ACY-1035/veh), FGFR1OP (ProbeSet 11751329_s_at) / Fold change (Aza/veh), VPS36 (ProbeSet 11739960_a_at) / Fold change (ACY-1035/veh), VPS36 (ProbeSet 11739960_a_at) / RFU SYPL1 (11715823_x_at) / Fold change /veh SYPL1 (11715823_x_at) / RFU IGFBP7 (11715501_s_at) / Fold change /veh IGFBP7 (11715501_s_at) / RFU REEP3 (11722064_at) / Fold change /veh REEP3 (11722064_at) / RFU IGLL1 (11728026_x_at) / Fold change /veh IGLL1 (11728026_x_at): dose or concentration left out as unconfirmed
# Details: ProbeSet 11718701_a_at; LIST B
smiles,measurement,value
Nc1ncn([C@@H]2O[C@H](CO)[C@@H](O)[C@H]2O)c(=O)n1 [azacitidine],"RFU, ARFIP1",68.44 RFU

# — article PMC5218480 (PLoS ONE, 2017)
